T1: MMP-2 (Homo sapiens, UniProt P08253)
T1 sequence (P08253 110-660): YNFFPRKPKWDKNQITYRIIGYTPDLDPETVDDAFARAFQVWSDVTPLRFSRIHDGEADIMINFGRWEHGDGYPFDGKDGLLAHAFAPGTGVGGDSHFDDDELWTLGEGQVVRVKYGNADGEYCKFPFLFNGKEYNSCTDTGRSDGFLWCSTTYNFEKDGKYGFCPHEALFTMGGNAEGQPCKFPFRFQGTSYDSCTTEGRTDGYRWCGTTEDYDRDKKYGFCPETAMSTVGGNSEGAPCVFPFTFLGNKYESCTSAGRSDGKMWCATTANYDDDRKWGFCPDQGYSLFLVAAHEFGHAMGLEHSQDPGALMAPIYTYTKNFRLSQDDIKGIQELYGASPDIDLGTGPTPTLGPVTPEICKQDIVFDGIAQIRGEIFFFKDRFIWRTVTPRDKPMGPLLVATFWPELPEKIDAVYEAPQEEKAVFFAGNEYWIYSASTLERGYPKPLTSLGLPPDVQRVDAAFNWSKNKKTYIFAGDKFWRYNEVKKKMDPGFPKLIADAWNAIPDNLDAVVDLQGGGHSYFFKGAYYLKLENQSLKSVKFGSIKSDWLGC

T2: angiogenic peptide SLanc: K-(SL)3(RG)(SL)3-K-G-KLTWQELYQLKYKGI
T2 chain: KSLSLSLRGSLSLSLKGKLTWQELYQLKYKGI

B1: MMP-2 (protein)
chain: T1 sequence (P08253 110-660)

Experiments:
[1] = system: HUVEC; assay: Scratch wound healing assay; format: cell-based, human; settings: 1 μM soluble peptide, low FBS (0.5%) media, 18 hr
Procedure: HUVEC were seeded in a 12-well plate (25,000 per well) and grown to confluence (n=6). A scratch wound was made in each of the wells with a 1 mL pipet tip. Cell surfaces were then washed with HBSS. Cell culture media with 0.5% FBS and 1 μM peptides (SLanc, SLac, PBS) alone was added on top of cells, n=6. Surfaces were imaged immediately. Cells were then incubated at 37° C. for 18 h imaged again in the same location. NIH Image J was used to measure the infiltration distance by migrating HUVEC.

[2] = molecular target: T1, MMP-2; assay: In vitro degradation of SLanc with MMP-2 (MALDI-MS); format: biochemical; settings: in vitro incubation with MMP-2, MALDI-MS
Description: Chemical moieties introduced into the peptide sequence can tailor the host response to materials. In the design of SLanc, an MMP-2 cleavage sequence was introduced into the central peptide backbone. This sequence can be cleaved specifically with MMP-2, which is secreted by a host of infiltrating cells ranging from macrophages to fibroblasts. […] Additional functionality was afforded to SLanc to enhance angiogenesis by addition of QK derived from VEGF-165.

[3] = system: human mesenchymal stem cells (hMSCs); assay: hMSC adhesion on hydrogel scaffolds; format: cell-based; settings: 2000 hMSC per gel, 5 days at 37° C., nuclei counted
Procedure: SLanc, SLac, SL, and RTT hydrogels (50 μL) were cast in 16-well chamber slides (n=6). hMSC (2000 on each gel) were seeded, and compared to TCP surfaces. Cells were incubated for 5 days at 37° C. Actin filaments were stained with Alexafluor Phalloidin 488 (Life Technologies) and DAPI (Life Technologies). Cell morphology was noted and nuclei counted to quantify proliferation.

[4] = system: THP-1 cells; assay: Immunogenicity with THP-1 cells atop scaffolds (ELISA); format: cell-based; settings: ELISA at 24 hr
Procedure: 200 μL gels were cast in 24 well plates. Rat tail tendon (RTT), Puramatrix™ (Pura) and Matrigel™ were used as gel controls, and TCP with macrophages differentiated to M1 (20 ng/mL IFN-γ+LPS) and M2 (20 ng/mL IL-4) phenotype were used as cell controls. THP-1 cells in suspension were suspended in media and incubated at a concentration of 1M cells/well atop scaffolds. Media aliquots were assayed for inflammatory (IL-1β, TNF-α), and anti-inflammatory (IL-10) at 24 hr using ELISA (Biolegend, Calif.).

[5] = system: Wistar rats; assay: Subcutaneous implants in rats, histologic and angiogenic evaluation; format: in vivo; settings: rat
Procedure: Female Wisar rats (225-250 g, Charles River Labs, Wilmington, Mass.) were anesthetized using isofluorane (2% for induction and 1% for maintenance), dorsal aspect shaved and sterilely prepped. Hydrogel scaffolds of each SL, SLc, SLac, SLanc or controls: Pura, VEGF (1 μg/mL) were made were loaded in syringes with 22 gage needles. 200 μL subcutaneous injections were injected in 4 different 1.5 inch spaced randomized sites on the dorsal aspect, on either side between the lower thoracic and upper lumber vertebrae. At prescribed timepoints 3 day, 1 week, 2 weeks and […] rats were euthanized using an overdose of isoflurane, CO2 asphyxiation, and bilateral thoracic puncture. The dorsal skin was removed around the entire implant, washed with PBS, and fixed in neutral buffered formalin for 24 hr prior to processing.
Tissue was processed to paraffin blocks, sectioned at 7 μm, deparraffinized and stained for cellular infiltrate using H&E. Cellular infiltrate was determined using immunostaining Mural cell staining associated with angiogenesis was determined by staining for endothelial cells: goat anti-rat CD31+ (Santa Cruz Biotechnology), mouse anti-rat vWF (ABCam); smooth muscle cells: rabbit anti-rat α-SMA+ (Dako); pericytes: mouse anti-rat Nestin+ (Millipore); hematopoitic stem cells: mouse anti-rat CD45 (Santa Cruz Biotechnology), and nucleic DAPI counterstain. Secondary antibodies used were goat anti-rabbit AF 488, donkey anti-goat AF 488, anti-goat AF 488 (Life Technologies), donkey Streptavidin AF 647 (Life Technologies), goat anti-mouse AF 647 and donkey anti-rabbit AF 647. Angiogenesis was quantified by measuring the diameter of vessels (small axis for non-circular vessels), density of vessels (vessels per unit area), presence and thickness of vessel wall (graded from 1 to 3: 1—non-contiguous vessel wall, 2: contiguous thin vessel wall, 3: contiguous multicell thick vessel wall) (n=4 separate sections, n=4 samples).
In modeled diseases such as ligated femoral artery ischemic limb wounds or myocardial infarction several host tissue responses are activated. From secretion of mediators of inflammation such as MCP-1, IL-4, IL-10, SDF-1 and GCSF to growth factors such as VEGF, FGF and EGF extrinsic factors can drastically influence performance of novel materials. As such, prior to use in a disease model, evaluation of scaffolds without concomitant influence from native immune responses was critical. 200 μL subcutaneous implants were randomly made in the dorsal aspect of Wistar rats between the cervical and lumbar vertebrae and 1-2 cm lateral to the midline. 1 w % scaffolds were prepared aseptically by crosslinking 2 w % peptide with an equal volume of HBSS, and injected via 21 gage needle below the skin. At 3 day, 1 week, 2 week and 3 week timepoints, rats were euthanized and scaffolds with surrounding tissue and skin removed. Scaffolds were trimmed, fixed in formalin, embedded in paraffin, sectioned and (immuno-) stained. […] These scaffolds seemed to have completely diffused away or degraded 3 days post-implant. […] Development of blood vessels is dependent on the stimuli the host and scaffold provides. VEGF loaded scaffolds presented 100 ng of recombinant protein (13 nM) within scaffolds. […] These cells of immune, hematopeotic and mesenchymal origin provide a niche for reconstitution of scaffolds. Coupled with recruitment and growth of endothelial feeders from existing vessels, we posit that pericytic cells enhance stability of growing vessels in a paracrine fashion providing adequate support for generation of arterioles.

[6] = molecular target: T2, angiogenic peptide SLanc: …

fibrous capsule around implant ([5]; subcutaneous implant)	Molecule	migration of HUVEC into scratch wound [1]	degradation by MMP-2 [2]	hMSC adhesion to scaffold [3]	IL-1β secretion by THP-1 cells [4]	TNF-α secretion by THP-1 cells [4]	cellular infiltration of scaffold (H&E) ([5]; 200 μL subcutaneous injection, 1 w % scaffold)	perfusion of neovessels (CD45 / vWF immunostaining) ([5]; subcutaneous implant)	time to development of angiogenic networks ([5]; subcutaneous implant) [days]	time to resorption of vessels and implants ([5]; subcutaneous implant) [weeks]	time to stable vessels ([5]; subcutaneous implant) [days]	vessels in scaffold at 3 day ([5]; subcutaneous implant, 3 day)	vessel maturity by immunostaining at 7 day and 2 weeks ([5]; subcutaneous implant, 7 day and 2 weeks)	hemangiomas or hemorrhaging ([5]; subcutaneous implant, up to 3 weeks)	macro-scale vessels visible upon explant ([5]; subcutaneous implant, compared to SLc or SLc+VEGF scaffolds)	enzymatic cleavage of the peptide, MALDI mass spectrometry of fragments [6]
	K-(SL)3-(RG)-(SL)3-K-(GRGDS) (KSLSLSLRGSLSLSLKGRGDS) [SLac, adhesion and cleavage peptide]	significantly higher proliferation than TCP														
lack of a fibrous capsule	Ac-KSLSLSLRGSLSLSLKGKLTWQELYQLKYKGI-NH2 [SLanc, K-(SL)3(RG)(SL)3-K-G-KLTWQELYQLKYKGI]	significantly higher proliferation than TCP	yields a variety of peptide fragments around the cleavage site	increased adhesion to SLanc over non-functionalized scaffolds	significantly lower than LPS activated cells, with levels similar to commercially available scaffolds (Puramatrix™ and Matrigel™)	significantly lower than LPS activated cells, with levels similar to commercially available scaffolds (Puramatrix™ and Matrigel™)	significantly greater cellular population	CD45+ hematopoietic cells were noted within vWF+ vessels suggesting patent perfused mature neovessels	≤ 3	≤ 3	≤ 7	small nascent vessels	mature Nestin+, α-SMA+, and CD31+ cells	without development of hemangiomas or hemorrhaging	visible macro-scale vessels	
	B1															In vitro demonstration of physiological degradation of SLanc with the addition of MMP-2, yields a variety of peptide fragments around the cleavage site
